Measured values: ChEMBL document CHEMBL2073897, “Major role of organic anion transporter 3 in the transport of indoxyl sulfate in the kidney” (Kidney Int, 2002)

Tests used:
[1] = molecular target: T1, Organic anion transporter 3 (OAT3) (Rattus norvegicus, UniProt Q9R1U7); experiment: TP_TRANSPORTER: inhibition of Indoxyl sulfate uptake (indoxyl sulfate: 2 uM, 4-Hydroxyphenylacetic acid: 1000 uM) in Xenopus laevis oocytes; assay type: functional, cell-based, Oocyte; parameters: scale not given: the % may be the effect or the level left; conditions: probe indoxyl sulfate (2 uM), read-out: Activity
T1 sequence (Q9R1U7 whole entry): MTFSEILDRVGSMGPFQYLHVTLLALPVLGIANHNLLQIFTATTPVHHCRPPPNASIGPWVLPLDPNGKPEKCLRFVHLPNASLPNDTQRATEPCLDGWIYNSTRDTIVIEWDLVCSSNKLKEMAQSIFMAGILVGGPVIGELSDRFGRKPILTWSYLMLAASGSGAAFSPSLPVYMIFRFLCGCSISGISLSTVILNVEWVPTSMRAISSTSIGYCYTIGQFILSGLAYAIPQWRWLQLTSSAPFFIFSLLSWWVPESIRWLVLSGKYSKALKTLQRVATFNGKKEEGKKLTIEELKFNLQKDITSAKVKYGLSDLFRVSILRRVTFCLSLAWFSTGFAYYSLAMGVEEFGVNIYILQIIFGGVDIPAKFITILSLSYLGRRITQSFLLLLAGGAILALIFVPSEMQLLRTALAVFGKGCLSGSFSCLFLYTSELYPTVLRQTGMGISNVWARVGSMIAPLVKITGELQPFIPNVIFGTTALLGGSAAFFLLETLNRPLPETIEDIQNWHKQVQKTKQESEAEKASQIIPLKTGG

[2] = molecular target: T1, Organic anion transporter 3 (OAT3); experiment: TP_TRANSPORTER: inhibition of Indoxyl sulfate uptake (indoxyl sulfate: 2 uM, 2-Hydroxycinnamic acid: 1000 uM) in Xenopus laevis oocytes; assay type: functional, cell-based, Oocyte; parameters: scale not given: the % may be the effect or the level left; conditions: probe indoxyl sulfate (2 uM), read-out: Activity
[3] = molecular target: T1, Organic anion transporter 3 (OAT3); experiment: TP_TRANSPORTER: inhibition of Indoxyl sulfate uptake (indoxyl sulfate: 2 uM, 4-Hydroxybenzoic acid: 1000 uM) in Xenopus laevis oocytes; assay type: functional, cell-based, Oocyte; parameters: scale not given: the % may be the effect or the level left; conditions: probe indoxyl sulfate (2 uM), read-out: Activity
[4] = molecular target: T1, Organic anion transporter 3 (OAT3); experiment: TP_TRANSPORTER: inhibition of Indoxyl sulfate uptake (indoxyl sulfate: 2 uM, Indoleacetic acid: 1000 uM) in Xenopus laevis oocytes; assay type: functional, cell-based, Oocyte; parameters: scale not given: the % may be the effect or the level left; conditions: probe indoxyl sulfate (2 uM), read-out: Activity
[5] = molecular target: T1, Organic anion transporter 3 (OAT3); experiment: TP_TRANSPORTER: inhibition of Indoxyl sulfate uptake (indoxyl sulfate: 2 uM, CMPF: 1000 uM) in Xenopus laevis oocytes; assay type: functional, cell-based, Oocyte; parameters: scale not given: the % may be the effect or the level left; conditions: probe indoxyl sulfate (2 uM), read-out: Activity
[6] = molecular target: T2, Organic anion transporter 3 (Rattus norvegicus, UniProt Q9R1U7); experiment: TP_TRANSPORTER: inhibition of Indoxyl sulfate uptake (indoxyl sulfate: 2 uM, Hippurate: 1000 uM) in Xenopus laevis oocytes; assay type: functional, cell-based; parameters: scale not given: the % may be the effect or the level left; conditions: oocyte
T2 sequence (Q9R1U7 whole entry): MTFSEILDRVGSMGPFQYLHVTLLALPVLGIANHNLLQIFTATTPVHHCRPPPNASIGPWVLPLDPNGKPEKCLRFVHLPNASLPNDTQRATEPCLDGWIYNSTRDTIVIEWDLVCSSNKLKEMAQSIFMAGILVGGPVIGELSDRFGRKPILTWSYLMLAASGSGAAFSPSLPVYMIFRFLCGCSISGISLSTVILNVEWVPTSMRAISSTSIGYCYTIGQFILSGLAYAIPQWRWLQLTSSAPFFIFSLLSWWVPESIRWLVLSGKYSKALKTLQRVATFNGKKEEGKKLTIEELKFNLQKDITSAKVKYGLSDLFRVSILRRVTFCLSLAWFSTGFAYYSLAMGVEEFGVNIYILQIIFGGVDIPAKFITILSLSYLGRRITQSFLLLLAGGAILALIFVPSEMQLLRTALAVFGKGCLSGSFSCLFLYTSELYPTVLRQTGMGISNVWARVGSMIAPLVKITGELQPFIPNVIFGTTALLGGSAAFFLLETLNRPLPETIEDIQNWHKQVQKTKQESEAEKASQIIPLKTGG

[7] = substrate: O=S(=O)(O)Oc1c[nH]c2ccccc12; experiment: TP_TRANSPORTER: uptake in Xenopus laevis oocytes; assay type: functional, cell-based, Oocyte

With `O=C(O)Cc1ccc(O)cc1` the activity at 1000 µM [1] was 29.7%.

In the case of `O=C(O)/C=C/c1ccccc1O` [O-COUMARIC ACID], the activity at 1000 µM [2] is reported as 39.5%.

In the case of `O=C(O)c1ccc(O)cc1` [PARABEN], the activity at 1000 µM [3] is reported as 22.1%.

For `CC(=O)Oc1c[nH]c2ccccc12` [INDOLE ACETATE], the activity at 1000 µM [4] was 51.2%.

`CCCc1oc(CCC(=O)O)c(C(=O)O)c1C` gave an activity at 1000 µM [5] of 8.38%.

Molecule `O=C(O)CNC(=O)c1ccccc1` [HIPPURIC ACID] has an Activity [6] of 24.6%.

B1: Organic anion transporter 3 (Rattus norvegicus) (protein)
chain: MTFSEILDRVGSMGPFQYLHVTLLALPVLGIANHNLLQIFTATTPVHHCRPPPNASIGPWVLPLDPNGKPEKCLRFVHLPNASLPNDTQRATEPCLDGWIYNSTRDTIVIEWDLVCSSNKLKEMAQSIFMAGILVGGPVIGELSDRFGRKPILTWSYLMLAASGSGAAFSPSLPVYMIFRFLCGCSISGISLSTVILNVEWVPTSMRAISSTSIGYCYTIGQFILSGLAYAIPQWRWLQLTSSAPFFIFSLLSWWVPESIRWLVLSGKYSKALKTLQRVATFNGKKEEGKKLTIEELKFNLQKDITSAKVKYGLSDLFRVSILRRVTFCLSLAWFSTGFAYYSLAMGVEEFGVNIYILQIIFGGVDIPAKFITILSLSYLGRRITQSFLLLLAGGAILALIFVPSEMQLLRTALAVFGKGCLSGSFSCLFLYTSELYPTVLRQTGMGISNVWARVGSMIAPLVKITGELQPFIPNVIFGTTALLGGSAAFFLLETLNRPLPETIEDIQNWHKQVQKTKQESEAEKASQIIPLKTGG
Molecule B1 has a Km [7] of 158 µM.
